What was measured:
barnyardgrass (Ec) [1] = assay: Test Example 1: herbicidal effects by paddy field soil treatment; type: in vivo; settings: 100 g of the active ingredient per 10 ares, 21st day after the application, index 0-5 of Table 47;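 also: grade of growth control; 5 = at least 90%; 4 = 70 to 90%; 3 = 50 to 70%; 2 = 30 to 50%; 1 = 10 to 30%; 0 = under 10%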
Method in brief: (§1)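 Scoring of herbicidal effect came 21 days after application of 100 g active ingredient per 10 ares to flooded (3 cm) paddy-soil pots sown with barnyardgrass, monochoria and bulrush, kept in a greenhouse.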

bulrush (Sc) = assay: as above; type: in vivo; settings: 100 g of the active ingredient per 10 ares, 21st day after the application, index 0-5 of Table 47;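 also: grade of growth control; 5 = at least 90%; 4 = 70 to 90%; 3 = 50 to 70%; 2 = 30 to 50%; 1 = 10 to 30%; 0 = under 10%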
Method in brief: as §1

monochoria (Mo) = assay: as above; type: in vivo; settings: 100 g of the active ingredient per 10 ares, 21st day after the application, index 0-5 of Table 47;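 also: grade of growth control; 5 = at least 90%; 4 = 70 to 90%; 3 = 50 to 70%; 2 = 30 to 50%; 1 = 10 to 30%; 0 = under 10%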
Method in brief: as §1

Digitaria ciliaris (Di) = assay: Test Example 2: herbicidal effects by upland field soil treatment; type: in vivo; settings: 100 g of the active ingredient per 10 ares, evaluated on the 21st day after application;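 also: grade of growth control; 5 = at least 90%; 4 = 70 to 90%; 3 = 50 to 70%; 2 = 30 to 50%; 1 = 10 to 30%; 0 = under 10%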
Description: (§2) (Test on Herbicidal Effects by Upland Field Soil Treatment)

barnyardgrass (Ec) [2] = assay: as above; type: in vivo; settings: 100 g of the active ingredient per 10 ares, evaluated on the 21st day after application
Description: as §2

[3] = tested on: common lambsquarters (Ch); assay: as above; type: in vivo; settings: 100 g of the active ingredient per 10 ares, evaluated on the 21st day after application
Description: as §2

pale smartweed (Po) [4] = assay: as above; type: in vivo; settings: 100 g of the active ingredient per 10 ares, evaluated on the 21st day after application
Description: as §2

rice flatsedge (Ci) [5] = assay: as above; type: in vivo; settings: 100 g of the active ingredient per 10 ares, evaluated on the 21st day after application
Description: as §2

slender amaranth (Am) [6] = assay: as above; type: in vivo; settings: 100 g of the active ingredient per 10 ares, evaluated on the 21st day after application
Description: as §2

Diaitaria ciliaris (Di) = assay: Test Example 3: herbicidal effects by upland field foliage treatment; type: in vivo; set-up: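 grade of growth control; 5 = at least 90%; 4 = 70 to 90%; 3 = 50 to 70%; 2 = 30 to 50%; 1 = 10 to 30%; 0 = under 10%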; settings: 100 g active ingredient per 10 ares, evaluated 14th day after treatment
Method in brief: (§3)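 Weeds were sown in sand-filled pots (surface area: 120 cm^2), covered with soil and grown in a greenhouse for 2 weeks before foliar treatment. Plants then stayed in the greenhouse, and herbicidal effect was scored against graded standards on the 14th day after treatment.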

barnyardgrass (Ec) [7] = assay: as above; type: in vivo; set-up: scale not given here; settings: 100 g active ingredient per 10 ares, evaluated 14th day after treatment
Method in brief: as §3

[8] = tested on: common lambsquarters (Ch); assay: as above; type: in vivo; set-up: scale not given here; settings: 100 g active ingredient per 10 ares, evaluated 14th day after treatment
Method in brief: as §3

pale smartweed (Po) [9] = assay: as above; type: in vivo; set-up: scale not given here; settings: 100 g active ingredient per 10 ares, evaluated 14th day after treatment
Method in brief: as §3

rice flatsedge (Ci) [10] = assay: as above; type: in vivo; set-up: scale not given here; settings: 100 g active ingredient per 10 ares, evaluated 14th day after treatment
Method in brief: as §3

slender amaranth (Am) [11] = assay: as above; type: in vivo; set-up: scale not given here; settings: 100 g active ingredient per 10 ares, evaluated 14th day after treatment
Method in brief: as §3

cotton (Go) = assay: Test Example 4: crop plant selectivity by upland field soil treatment (cotton), phytotoxicity; type: in vivo; set-up: scale not given here; settings: dose 6.3 g ai/10 a, evaluated 21st day after application
Method in brief: (§4)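 Seeds of cotton and several weed species were sown in sand-filled pots and covered with soil before soil treatment with the test compound. Plants were grown in a greenhouse, and herbicidal effect and crop phytotoxicity were scored against set standards 21 days after application.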

China jute (Ab) [12] = assay: Test Example 4: crop plant selectivity by upland field soil treatment (cotton), herbicidal effects; type: in vivo; set-up: scale not given here; settings: dose 6.3 g ai/10 a, evaluated 21st day after application
Method in brief: as §4

[13] = tested on: common lambsquarters (Ch); assay: as above; type: in vivo; set-up: scale not given here; settings: dose 6.3 g ai/10 a, evaluated 21st day after application
Method in brief: as §4

green foxtail (Se) [14] = assay: as above; type: in vivo; set-up: scale not given here; settings: dose 6.3 g ai/10 a, evaluated 21st day after application
Method in brief: as §4

pale smartweed (Po) [15] = assay: as above; type: in vivo; set-up: scale not given here; settings: dose 6.3 g ai/10 a, evaluated 21st day after application
Method in brief: as §4

slender amaranth (Am) [16] = assay: as above; type: in vivo; set-up: scale not given here; settings: dose 6.3 g ai/10 a, evaluated 21st day after application
Method in brief: as §4

corn (Ze) [17] = assay: Test Example 7: crop plant selectivity by upland field soil treatment (corn), phytotoxicity; type: in vivo; set-up: scale not given here; settings: dose 6.3 g ai/10a, 21st day after application
Method in brief: (§5)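 Corn and weeds (green foxtail, pale smartweed, slender amaranth, common lambsquarters, China jute) sown in sand-filled pots, covered with soil and treated by soil application. Grown in a greenhouse; herbicidal effect and crop phytotoxicity scored on day 21 after application using a fixed rating scale.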

China jute (Ab) [18] = assay: Test Example 7: crop plant selectivity by upland field soil treatment (corn), herbicidal effects; type: in vivo; set-up: scale not given here; settings: dose 6.3 g ai/10a, 21st day after application
Method in brief: as §5

[19] = tested on: common lambsquarters (Ch); assay: as above; type: in vivo; set-up: scale not given here; settings: dose 6.3 g ai/10a, 21st day after application
Method in brief: as §5

green foxtail (Se) [20] = assay: as above; type: in vivo; set-up: scale not given here; settings: dose 6.3 g ai/10a, 21st day after application
Method in brief: as §5

pale smartweed (Po) [21] = assay: as above; type: in vivo; set-up: scale not given here; settings: dose 6.3 g ai/10a, 21st day after application
Method in brief: as §5

slender amaranth (Am) [22] = assay: as above; type: in vivo; set-up: scale not given here; settings: dose 6.3 g ai/10a, 21st day after application
Method in brief: as §5

wheat (Tr) = assay: Test Example 9: crop plant selectivity by upland field foliage treatment (wheat), phytotoxicity; settings: dose 1.6 g ai/10a, 14th day after treatment
Method in brief: (§6)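 Wheat and broadleaf weeds were sown together in sand-filled pots and grown for 2 weeks in a greenhouse before foliar treatment. Herbicidal effect on weeds and phytotoxicity to wheat were scored visually against set grading standards on day 14 after treatment, with plants kept in the greenhouse.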

China jute (Ab) [23] = assay: Test Example 9: crop plant selectivity by upland field foliage treatment (wheat), herbicidal effects; type: in vivo; set-up: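 grade of growth control; 5 = at least 90%; 4 = 70 to 90%; 3 = 50 to 70%; 2 = 30 to 50%; 1 = 10 to 30%; 0 = under 10%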; settings: dose 1.6 g ai/10a, 14th day after treatment
Method in brief: as §6

[24] = tested on: common lambsquarters (Ch); assay: as above; type: in vivo; set-up: scale not given here; settings: dose 1.6 g ai/10a, 14th day after treatment
Method in brief: as §6

pale smartweed (Po) [25] = assay: as above; type: in vivo; set-up: scale not given here; settings: dose 1.6 g ai/10a, 14th day after treatment
Method in brief: as §6

slender amaranth (Am) [26] = assay: as above; type: in vivo; set-up: scale not given here; settings: dose 1.6 g ai/10a, 14th day after treatment
Method in brief: as §6

corn (Ze) [27] = assay: Test Example 11: crop plant selectivity by upland field foliage treatment (corn), phytotoxicity; settings: upland field foliage treatment, dose 1.6 g ai/10a, 14th day after treatment
Method in brief: (§7)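 Corn with pale smartweed, slender amaranth, common lambsquarters and China jute sown in sand-filled pots and grown 2 weeks in a greenhouse before foliage treatment. Herbicidal effect and crop phytotoxicity scored on day 14 after treatment against a rating standard.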

China jute (Ab) [28] = assay: Test Example 11: crop plant selectivity by upland field foliage treatment (corn), herbicidal effects; type: in vivo; set-up: scale not given here; settings: upland field foliage treatment (corn test), dose 1.6 g ai/10a, 14th day after treatment
Method in brief: as §7

[29] = tested on: common lambsquarters (Ch); assay: as above; type: in vivo; set-up: scale not given here; settings: upland field foliage treatment (corn test), dose 1.6 g ai/10a, 14th day after treatment
Method in brief: as §7

pale smartweed (Po) [30] = assay: as above; type: in vivo; set-up: scale not given here; settings: upland field foliage treatment (corn test), dose 1.6 g ai/10a, 14th day after treatment
Method in brief: as §7

slender amaranth (Am) [31] = assay: as above; type: in vivo; set-up: scale not given here; settings: upland field foliage treatment (corn test), dose 1.6 g ai/10a, 14th day after treatment
Method in brief: as §7

## CC(C)C(=O)c1cc(-c2ccc(C(F)(F)F)n(C)c2=O)c(F)cc1Cl [Compound 1-196]
Barnyardgrass (Ec) [1]
  Herbicidal effects Ec: 5
Bulrush (Sc)
  Herbicidal effects Sc: 5
Monochoria (Mo)
  Herbicidal effects Mo: 5
Digitaria ciliaris (Di)
  Herbicidal effects Di: 5
Barnyardgrass (Ec) [2]
  Herbicidal effects Ec: 5
[3]
  Herbicidal effects Ch: 5
Pale smartweed (Po) [4]
  Herbicidal effects Po: 5
Rice flatsedge (Ci) [5]
  Herbicidal effects Ci: 5
Slender amaranth (Am) [6]
  Herbicidal effects Am: 5
Diaitaria ciliaris (Di)
  Herbicidal effects Di: 5
Barnyardgrass (Ec) [7]
  Herbicidal effects Ec: 5
[8]
  Herbicidal effects Ch: 5
Pale smartweed (Po) [9]
  Herbicidal effects Po: 5
Rice flatsedge (Ci) [10]
  Herbicidal effects Ci: 5
Slender amaranth (Am) [11]
  Herbicidal effects Am: 5
Cotton (Go)
  Phytotoxicity Go: 0
China jute (Ab) [12]
  Herbicidal effects Ab: 5
[13]
  Herbicidal effects Ch: 5
Green foxtail (Se) [14]
  Herbicidal effects Se: 5
Pale smartweed (Po) [15]
  Herbicidal effects Po: 5
Slender amaranth (Am) [16]
  Herbicidal effects Am: 5
Corn (Ze) [17]
  Phytotoxicity Ze: 1
China jute (Ab) [18]
  Herbicidal effects Ab: 5
[19]
  Herbicidal effects Ch: 5
Green foxtail (Se) [20]
  Herbicidal effects Se: 5
Pale smartweed (Po) [21]
  Herbicidal effects Po: 5
Slender amaranth (Am) [22]
  Herbicidal effects Am: 5
Wheat (Tr)
  Phytotoxicity Tr: 2
China jute (Ab) [23]
  Herbicidal effects Ab: 5
[24]
  Herbicidal effects Ch: 5
Pale smartweed (Po) [25]
  Herbicidal effects Po: 5
Slender amaranth (Am) [26]
  Herbicidal effects Am: 5
Corn (Ze) [27]
  Phytotoxicity Ze: 2
China jute (Ab) [28]
  Herbicidal effects Ab: 5
[29]
  Herbicidal effects Ch: 5
Pale smartweed (Po) [30]
  Herbicidal effects Po: 5
Slender amaranth (Am) [31]
  Herbicidal effects Am: 5

## Cc1ccc(-c2ccc(Cl)cc2Cl)c(=O)n1C(F)F [Compound No. 1-8, 3-(2,4-dichlorophenyl)-1-difluoromethyl-6-methyl-2(1H)-pyridone]
other
  melting point: 83 to 85 °C

## Cn1c(C(F)(F)F)ccc(-c2cc(S)c(Cl)cc2F)c1=O [Compound No. 1-42, 3-(4-chloro-2-fluoro-5-mercaptophenyl)-1-methyl-6-trifluoromethyl-2(1H)-pyridone]
other
  melting point: 141 to 142 °C

## Cn1c(C(F)(F)F)ccc(-c2cc(N)c(Cl)cc2F)c1=O [Compound No. 1-59, 3-(5-amino-4-chloro-2-fluorophenyl)-1-methyl-6-trifluoromethyl-2(1H)-pyridone]
other
  melting point: 155 to 157 °C
